Test results taken from ChEMBL document CHEMBL5126531, “NAE modulators: A potential therapy for gastric carcinoma” (Eur J Med Chem, 2022).

Tests used:
[1] = target: T1, Ubiquitin-like modifier-activating enzyme 1 (Homo sapiens, UniProt P22314); test: Inhibition of recombinant C-terminal His-tagged human full length UAE1 expressed in Escherichia coli BL21 (lambdaDE3) assessed as reduction in transfer of Ub to UBE2C enzyme
T1 sequence (P22314 whole entry): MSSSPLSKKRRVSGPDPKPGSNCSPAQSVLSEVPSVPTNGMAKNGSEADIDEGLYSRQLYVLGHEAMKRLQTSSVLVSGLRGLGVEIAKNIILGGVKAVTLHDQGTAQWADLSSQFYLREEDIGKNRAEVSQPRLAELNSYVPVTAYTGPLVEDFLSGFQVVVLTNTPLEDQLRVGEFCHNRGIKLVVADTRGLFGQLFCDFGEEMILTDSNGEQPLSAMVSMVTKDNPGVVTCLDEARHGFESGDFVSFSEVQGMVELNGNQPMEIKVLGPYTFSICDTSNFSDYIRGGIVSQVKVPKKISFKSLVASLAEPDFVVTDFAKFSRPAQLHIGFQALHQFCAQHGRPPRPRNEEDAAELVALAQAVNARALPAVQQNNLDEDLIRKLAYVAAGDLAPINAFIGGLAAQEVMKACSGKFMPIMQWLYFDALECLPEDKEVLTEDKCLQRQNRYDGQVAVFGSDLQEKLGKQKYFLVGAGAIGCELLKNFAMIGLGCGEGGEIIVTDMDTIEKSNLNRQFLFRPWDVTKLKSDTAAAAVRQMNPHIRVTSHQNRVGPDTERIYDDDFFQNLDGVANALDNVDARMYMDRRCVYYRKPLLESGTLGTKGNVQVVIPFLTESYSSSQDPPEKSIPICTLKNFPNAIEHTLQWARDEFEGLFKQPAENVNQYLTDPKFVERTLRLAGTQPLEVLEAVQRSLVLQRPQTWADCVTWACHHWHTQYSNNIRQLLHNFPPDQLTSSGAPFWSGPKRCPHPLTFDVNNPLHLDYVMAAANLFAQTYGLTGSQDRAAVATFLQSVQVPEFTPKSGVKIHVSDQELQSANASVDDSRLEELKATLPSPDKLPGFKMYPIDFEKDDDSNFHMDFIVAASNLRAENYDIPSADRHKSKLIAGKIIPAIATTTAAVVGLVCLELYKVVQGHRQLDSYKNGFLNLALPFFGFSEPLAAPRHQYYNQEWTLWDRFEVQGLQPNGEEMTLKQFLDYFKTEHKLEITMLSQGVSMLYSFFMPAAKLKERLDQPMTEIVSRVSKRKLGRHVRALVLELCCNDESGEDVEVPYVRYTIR

[2] = target: T2, SUMO-activating enzyme (Homo sapiens, UniProt Q9UBT2); test: Inhibition of recombinant human SAE1/UBA2 expressed in Escherichia coli assessed as reduction in transfer of […] to UBE2I enzyme
[3] = tested on: CCRF-CEM; test: Antiproliferative activity against human CCRF-CEM assessed as net growth rate at <1 uM […] by CellTiter-Glo assay relative to control; assay type: functional
[4] = Toxicity in SCID mouse xenografted with human TMD8 cells expressing luciferase gene assessed as survival days at 100 mg/kg/day, iv administered at 1 to 21 days cycle for 8 cycles; assay type: organism-based; conditions: in vivo, time 1-21 day
[5] = target: T3, NEDD8 activating enzyme (Homo sapiens, UniProt Q8TBC4); test: Inhibition of recombinant human APPBP1/UBA3 expressed in Escherichia coli assessed as Ub/Ubl thioester transfer
T3 sequence (Q8TBC4 whole entry): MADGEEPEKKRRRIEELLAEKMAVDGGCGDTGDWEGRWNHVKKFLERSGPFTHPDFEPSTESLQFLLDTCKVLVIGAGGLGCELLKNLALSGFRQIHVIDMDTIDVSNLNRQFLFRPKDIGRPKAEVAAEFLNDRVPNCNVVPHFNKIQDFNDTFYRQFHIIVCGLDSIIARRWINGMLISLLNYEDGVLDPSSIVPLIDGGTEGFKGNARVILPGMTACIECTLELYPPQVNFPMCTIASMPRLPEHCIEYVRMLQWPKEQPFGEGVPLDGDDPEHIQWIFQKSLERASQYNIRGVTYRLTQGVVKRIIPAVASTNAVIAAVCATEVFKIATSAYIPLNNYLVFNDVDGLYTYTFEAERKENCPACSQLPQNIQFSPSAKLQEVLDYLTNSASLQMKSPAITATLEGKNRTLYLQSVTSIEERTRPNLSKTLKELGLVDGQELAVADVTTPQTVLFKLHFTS
T3 sequence (Q13564 whole entry): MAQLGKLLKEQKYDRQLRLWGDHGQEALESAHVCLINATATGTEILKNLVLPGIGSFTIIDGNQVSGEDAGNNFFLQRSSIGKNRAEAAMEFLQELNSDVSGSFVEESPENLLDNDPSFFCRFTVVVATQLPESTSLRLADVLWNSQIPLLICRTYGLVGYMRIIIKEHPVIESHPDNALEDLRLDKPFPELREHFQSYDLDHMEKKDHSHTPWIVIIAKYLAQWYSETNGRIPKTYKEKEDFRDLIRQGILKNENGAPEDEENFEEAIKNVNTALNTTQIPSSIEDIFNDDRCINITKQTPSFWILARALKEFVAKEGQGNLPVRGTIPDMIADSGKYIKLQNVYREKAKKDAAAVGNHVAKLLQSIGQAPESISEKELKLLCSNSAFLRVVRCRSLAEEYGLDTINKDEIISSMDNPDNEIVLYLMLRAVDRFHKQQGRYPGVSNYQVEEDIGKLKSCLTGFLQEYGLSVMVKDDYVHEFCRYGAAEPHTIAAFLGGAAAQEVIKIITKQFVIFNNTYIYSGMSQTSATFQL

[6] = target: T4, NEDD8-activating enzyme E1 regulatory subunit (Homo sapiens, UniProt Q13564); test: Inhibition of NAE (unknown origin)
T4 sequence (Q13564 whole entry): T3 sequence (Q13564 whole entry)

[7] = target: T1, Ubiquitin-like modifier-activating enzyme 1; test: Inhibition of UAE (unknown origin)
[8] = tested on: MGC-803; test: Induction of apoptosis in human MGC-803 cells assessed as total apoptotic cells at 0.5 micromol/L incubated for 48 hrs by Annexin V-FITC/PI staining based flow cytometric analysis (reference value: 3.2%); assay type: functional; conditions: dose 0.5 µmol/L, at 0.5 µM
[9] = tested on: MGC-803; test: Induction of apoptosis in human MGC-803 cells assessed as total apoptotic cells at 2 micromol/L incubated for 48 hrs by Annexin V-FITC/PI staining based flow cytometric analysis (reference value: 3.2%); assay type: functional; conditions: dose 2 µmol/L, at 2 µM
[10] = tested on: MGC-803; test: Antiproliferative activity against human MGC-803 cells assessed as inhibition of cell growth incubated for 48 hrs by MTT assay; assay type: functional, cell-based; conditions: MGC-803, 48 h
[11] = tested on: MGC-803; test: Induction of apoptosis in human MGC-803 cells assessed as total apoptotic cells at 1 micromol/L incubated for 48 hrs by Annexin V-FITC/PI staining based flow cytometric analysis (reference value: 3.2%); assay type: functional; conditions: dose 1 µmol/L, at 1 µM
[12] = target: T5, NEDD8-conjugating enzyme Ubc12 (Homo sapiens, UniProt P61081); test: Inhibition of Ubc12 (unknown origin)-neddylation incubated for 30 mins in presence of ATP by Western blot analysis
T5 sequence (P61081 whole entry): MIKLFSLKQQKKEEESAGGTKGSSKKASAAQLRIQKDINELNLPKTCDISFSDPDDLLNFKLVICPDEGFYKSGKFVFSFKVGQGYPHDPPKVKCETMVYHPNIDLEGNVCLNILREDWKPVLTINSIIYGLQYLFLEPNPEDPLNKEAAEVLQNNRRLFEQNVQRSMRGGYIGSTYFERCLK

[13] = target: T6, Ubiquitin-like modifier-activating enzyme ATG7 (Homo sapiens, UniProt O95352); test: Inhibition of His-tagged ATG7 (unknown origin) expressed in sf9 insect cells
T6 sequence (O95352 whole entry): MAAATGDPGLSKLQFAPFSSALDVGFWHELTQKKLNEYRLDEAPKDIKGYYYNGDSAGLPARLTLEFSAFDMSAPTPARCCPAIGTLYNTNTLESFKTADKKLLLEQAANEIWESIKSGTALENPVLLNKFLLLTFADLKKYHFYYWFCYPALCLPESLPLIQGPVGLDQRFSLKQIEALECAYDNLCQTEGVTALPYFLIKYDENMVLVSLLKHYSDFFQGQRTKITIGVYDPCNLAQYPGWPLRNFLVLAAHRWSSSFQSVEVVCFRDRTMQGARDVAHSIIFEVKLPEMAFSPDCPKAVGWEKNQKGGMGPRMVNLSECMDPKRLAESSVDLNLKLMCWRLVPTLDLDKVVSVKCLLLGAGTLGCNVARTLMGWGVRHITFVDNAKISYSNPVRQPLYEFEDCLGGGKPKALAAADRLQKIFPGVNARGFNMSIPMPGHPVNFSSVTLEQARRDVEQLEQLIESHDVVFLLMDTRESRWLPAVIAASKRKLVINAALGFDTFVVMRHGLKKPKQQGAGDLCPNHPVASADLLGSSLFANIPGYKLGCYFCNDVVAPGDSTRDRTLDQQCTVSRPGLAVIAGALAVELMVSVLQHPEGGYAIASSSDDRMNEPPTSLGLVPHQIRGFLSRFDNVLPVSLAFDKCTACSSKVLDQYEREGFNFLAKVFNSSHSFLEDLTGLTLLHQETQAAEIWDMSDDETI

[14] = target: T7, Ubiquitin-like modifier-activating enzyme 6 (Homo sapiens, UniProt A0AVT1); test: Inhibition of His-tagged UBA6 (unknown origin) expressed in sf9 insect cells
T7 sequence (A0AVT1 whole entry): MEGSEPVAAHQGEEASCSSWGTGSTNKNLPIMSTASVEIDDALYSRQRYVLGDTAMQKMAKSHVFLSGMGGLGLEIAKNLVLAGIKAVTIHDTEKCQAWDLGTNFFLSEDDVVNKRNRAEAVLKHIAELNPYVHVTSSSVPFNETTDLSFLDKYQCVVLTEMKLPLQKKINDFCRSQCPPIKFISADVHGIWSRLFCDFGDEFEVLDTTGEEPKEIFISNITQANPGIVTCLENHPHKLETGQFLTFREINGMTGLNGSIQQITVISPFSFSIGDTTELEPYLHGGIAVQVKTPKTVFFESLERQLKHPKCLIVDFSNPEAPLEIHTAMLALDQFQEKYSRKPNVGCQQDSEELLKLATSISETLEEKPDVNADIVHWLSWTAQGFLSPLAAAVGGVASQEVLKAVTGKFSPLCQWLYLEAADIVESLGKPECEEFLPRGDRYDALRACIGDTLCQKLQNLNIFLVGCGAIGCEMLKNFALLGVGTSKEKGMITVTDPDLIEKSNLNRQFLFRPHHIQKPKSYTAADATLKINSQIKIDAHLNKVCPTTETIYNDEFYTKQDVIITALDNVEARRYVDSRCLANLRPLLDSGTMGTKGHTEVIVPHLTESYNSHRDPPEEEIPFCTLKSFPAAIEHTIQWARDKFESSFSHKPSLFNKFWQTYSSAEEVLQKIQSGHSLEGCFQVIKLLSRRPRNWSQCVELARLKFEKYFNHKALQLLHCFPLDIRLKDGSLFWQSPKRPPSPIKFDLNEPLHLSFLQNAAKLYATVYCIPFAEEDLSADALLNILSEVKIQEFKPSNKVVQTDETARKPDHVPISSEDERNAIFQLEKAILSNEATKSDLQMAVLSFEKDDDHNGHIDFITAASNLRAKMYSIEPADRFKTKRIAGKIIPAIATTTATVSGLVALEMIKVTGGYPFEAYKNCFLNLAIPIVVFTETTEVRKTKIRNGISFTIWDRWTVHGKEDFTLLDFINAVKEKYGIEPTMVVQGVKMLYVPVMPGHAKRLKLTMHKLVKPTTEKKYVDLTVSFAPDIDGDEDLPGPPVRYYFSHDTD

[15] = target: T2, SUMO-activating enzyme; test: Inhibition of SAE1/UBA2 in human HCT-116 cells assessed as reduction in Ubc9-SUMO level incubated for 24 hrs by immunoblot analysis; assay type: cell-based

T2 sequence (Q9UBE0 whole entry): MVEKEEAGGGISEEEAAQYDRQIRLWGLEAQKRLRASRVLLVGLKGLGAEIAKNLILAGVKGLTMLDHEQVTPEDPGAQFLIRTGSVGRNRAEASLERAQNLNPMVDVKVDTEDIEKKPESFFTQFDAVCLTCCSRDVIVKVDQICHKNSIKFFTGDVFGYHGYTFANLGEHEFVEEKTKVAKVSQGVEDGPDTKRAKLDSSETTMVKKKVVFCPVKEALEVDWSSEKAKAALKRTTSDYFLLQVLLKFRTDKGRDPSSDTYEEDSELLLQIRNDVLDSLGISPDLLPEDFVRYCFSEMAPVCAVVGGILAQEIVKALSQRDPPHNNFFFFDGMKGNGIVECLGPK
T2 sequence (Q9UBT2 whole entry): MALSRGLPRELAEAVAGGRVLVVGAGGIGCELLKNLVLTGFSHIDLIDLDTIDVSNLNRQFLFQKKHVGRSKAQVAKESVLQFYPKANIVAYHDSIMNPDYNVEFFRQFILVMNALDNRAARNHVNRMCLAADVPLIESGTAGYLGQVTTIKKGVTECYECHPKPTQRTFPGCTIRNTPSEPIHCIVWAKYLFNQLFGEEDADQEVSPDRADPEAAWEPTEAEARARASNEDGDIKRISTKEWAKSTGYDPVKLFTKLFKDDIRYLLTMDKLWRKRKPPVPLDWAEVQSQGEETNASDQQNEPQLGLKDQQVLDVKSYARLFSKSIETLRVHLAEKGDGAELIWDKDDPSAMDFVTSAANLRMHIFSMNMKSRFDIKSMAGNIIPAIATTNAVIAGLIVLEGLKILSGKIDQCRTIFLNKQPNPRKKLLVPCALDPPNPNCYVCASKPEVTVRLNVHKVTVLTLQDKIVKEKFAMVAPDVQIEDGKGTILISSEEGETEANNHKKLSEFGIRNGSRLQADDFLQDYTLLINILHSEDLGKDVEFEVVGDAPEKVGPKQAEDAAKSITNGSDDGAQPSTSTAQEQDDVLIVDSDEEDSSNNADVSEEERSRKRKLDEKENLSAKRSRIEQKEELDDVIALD

**Q.** For `CCOc1cccc(F)c1C#Cc1cn([C@@H]2O[C@H](CNS(N)(=O)=O)[C@@H](O)[C@H]2O)c2ncnc(N)c12`, which IC50 [1] is on record?
**A.** The IC50 was 0.449 µM.

**Q.** What about the IC50 [2] of the same compound?
**A.** The IC50 was 1.28 µM.

**Q.** And the Activity [3]?
**A.** The Activity was 0%.

**Q.** What about the Survival [4] of the same compound?
**A.** The Survival was over 159 days.

**Q.** And the IC50 [5]?
**A.** Its IC50 is 0.000955 µM.

**Q.** What does the source list for `COC(=O)N1CCC2(CC1)C[C@H](Nc1ncnc3c1nnn3[C@@H]1C[C@@H](COS(N)(=O)=O)[C@@H](O)C1)c1ccccc12`?
**A.** IC50 [6]: 0.0005 µM; IC50 [7]: 0.066 µM

**Q.** Which Activity [8] does the source give for `COc1ccc(CN(C(=O)Cn2ccc3cc(OC)ccc32)c2cc(OC)c(OC)c(OC)c2)cc1` here?
**A.** Its Activity is 4.4%.

**Q.** And the Activity [9]?
**A.** Its Activity is 65.2%.

**Q.** And the IC50 [10]?
**A.** Its IC50 is 1.59 µM.

**Q.** What about the Activity [11] of the same compound?
**A.** Its Activity is 11.1%.

**Q.** For `CC(C)=CCc1c(O)c(CC=C(C)C)c2oc3c(O)ccc(O)c3c(=O)c2c1O` [GARTANIN], which IC50 [12] is on record?
**A.** The IC50 was 10.3 µM.

**Q.** With `NS(=O)(=O)OC[C@@H]1C[C@@H](n2ccc3c(N[C@H]4CCc5ccccc54)ncnc32)C[C@@H]1O` [PEVONEDISTAT] as the compound, how does the IC50 [13] read?
**A.** The IC50 was over 10 µM.

**Q.** What about the IC50 [14] of the same compound?
**A.** The IC50 was 1.8 µM.

**Q.** And the IC50 [15]?
**A.** The IC50 was 8.2 µM.
